# From US7671054B1, “Reverse-turn mimetics and method relating thereto” (Choongwae Pharma Corporation, priority 2001, dated 2010)
# System: TCF4/β-catenin transcription (TOPFlash) in SW480 cells
# Assay: Reporter gene assay (TOPFlash luciferase)
# Format: cell-based
# Conditions: Homo sapiens, SW480
# Outline: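 SW480 cells transiently co-transfected with TOPFlash and pRL-null (4:1 µg) using Superfect, then reseeded at 3×10^4 cells/well and incubated overnight at 37 °C. Compound treatment lasted 24 h before luciferase read-out.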
row,SMILES,IC50 [µM]
1,C=CCN1CC(=O)N2[C@@H](Cc3ccc(OC(=O)NCCN(C)C)cc3)C(=O)N(Cc3ccc(F)cc3F)C[C@@H]2N1C(=O)NCc1ccccc1 [Compound 173],1.8 ± 0.2

# Same assay, conditions: Homo sapiens, SW480, Table 4; Reporter gene assay as described in Example 6; read-out: IC50
row,IC50 [µM],SMILES
1,3.2 ± 0.4,C=CCN1CC(=O)N2[C@@H](Cc3ccc(O)cc3)C(=O)N(Cc3cccc(N(C)C(=O)CCCCC)c3)C[C@@H]2N1C(=O)NCc1ccccc1 [Compound 194]
2,5.1,C[C@H](c1ccccc1)N1CC2N(C(=O)CN(C)N2C(=O)NCc2ccccc2)[C@@H](Cc2ccc(O)cc2)C1=O (stereo partly drawn) [Compound 20]
3,1.6 ± 0.1,C#CCN1CC(=O)N2[C@@H](Cc3ccc(O)cc3)C(=O)N(Cc3cc(F)c(F)cc3N(C)C)C[C@@H]2N1C(=O)NCc1ccccc1 [Compound 108]
4,8 ± 0.7,CN(C)Cc1cccc(CN2C[C@H]3N(C(=O)CN(C)N3C(=O)NCc3ccccc3)[C@@H](Cc3ccc(O)cc3)C2=O)c1 [Compound 116]
5,23.4 ± 1.9,C=CCN1CC(=O)N2[C@@H](Cc3ccc(O)cc3)C(=O)N([C@@H](C)c3ccc(Cl)c4cccnc34)C[C@@H]2N1C(=O)NCc1ccccc1 [Compound 185]
6,8.8 ± 1.3,O=C1[C@H](Cc2ccc(O)cc2)N2C(=O)CON(C(=O)NCc3ccccc3)[C@H]2CN1Cc1cccc2cccnc12 [Compound 119]
7,1 ± 0.2,C=CCN1CC(=O)N2[C@@H](Cc3ccc(O)cc3)C(=O)N(Cc3cccc4cccnc34)C[C@@H]2N1C(=O)NCc1ccc(Cl)c(Cl)c1 [Compound 199]
8,6.1 ± 0.4,CN1CC(=O)N2[C@@H](Cc3ccc(O)cc3)C(=O)N(Cc3cccc(OCCN4CCOCC4)c3)C[C@@H]2N1C(=O)NCc1ccccc1 [Compound 130]
9,5.3 ± 0.4,C=CCN1CC(=O)N2[C@@H](Cc3ccc(O)cc3)C(=O)N(Cc3ccc(F)cc3F)[C@@H](C)[C@@H]2N1C(=O)NCc1ccccc1 [Compound 177]
10,2.4 ± 0.7,C#CCN1CC(=O)N2[C@@H](Cc3ccc(O)cc3)C(=O)N(Cc3ccc4c(c3)OCCO4)C[C@@H]2N1C(=O)NCc1ccccc1 [Compound 135]
11,1.4,CN(C)c1cc(F)c(F)cc1CN1C[C@H]2N(C(=O)CN(C)N2C(=O)NCc2ccccc2)[C@@H](Cc2ccc(O)cc2)C1=O [Compound 49]
12,2.7 ± 0.3,CN1CC(=O)N2[C@@H](Cc3ccc(O)cc3)C(=O)N(Cc3cccc4nn(CCN5CCOCC5)cc34)C[C@@H]2N1C(=O)NCc1ccccc1 [Compound 100]
13,5.8 ± 0.4,CN1CC(=O)N2[C@@H](Cc3ccc(O)cc3)C(=O)N(Cc3ccc(F)cc3F)C[C@@H]2N1C(=O)NCc1ccc(Br)cc1 [Compound 201]
14,5.4 ± 1,C=CCN1CC(=O)N2[C@@H](Cc3ccc(O)cc3)C(=O)N(Cc3cccc4sc(C(=O)OCC)nc34)C[C@@H]2N1C(=O)NCc1ccccc1 [Compound 224]
15,1.4 ± 0.7,C[C@H]1[C@@H]2N(C(=O)CN(C)N2C(=O)NCc2ccccc2)[C@@H](Cc2ccc(O)cc2)C(=O)N1Cc1ccc(F)cc1F [Compound 69]
16,2.7 ± 0.2,C=CCN1CC(=O)N2[C@@H](Cc3ccc(NC=O)cc3)C(=O)N(Cc3ccc(F)cc3F)C[C@@H]2N1C(=O)NCc1ccccc1 [Compound 159]
17,6.7 ± 0.6,C=CCN1CC(=O)N2[C@@H](CC3(O)C=CC(=O)C=C3)C(=O)N(Cc3ccc(F)cc3F)C[C@@H]2N1C(=O)NCc1ccccc1 [Compound 181]
18,1.3,CN(C)c1cc(F)ccc1CN1C[C@H]2N(C(=O)CN(C)N2C(=O)NCc2ccccc2)[C@@H](Cc2ccc(O)cc2)C1=O [Compound 50]
19,1.1 ± 0.2,C=CCN1CC(=O)N2[C@@H](Cc3ccc(O)cc3)C(=O)N(Cc3ccccc3)C[C@@H]2N1C(=O)NCc1ccccc1 [Compound 164]
20,4 ± 0.4,CC(C)N1CC(=O)N2[C@@H](Cc3ccc(O)cc3)C(=O)N(Cc3ccc(F)cc3F)C[C@@H]2N1C(=O)NCc1ccccc1 [Compound 176]
21,9.4 ± 1,C=CCN1CC(=O)N2[C@@H](Cc3ccc(O)cc3)C(=O)N(Cc3ccc4c(c3)OCCN4C)C[C@@H]2N1C(=O)NCc1ccccc1 [Compound 147]
22,13.9,CN1CC(=O)N2C(Cc3ccc(O)cc3)C(=O)N(Cc3cccc4ccccc34)CC2N1C(=O)NCc1ccc(Cl)c(Cl)c1 (stereo not drawn) [Compound 3]
23,1.1 ± 0.1,C=CCN1CC(=O)N2[C@@H](Cc3ccc(O)cc3)C(=O)N(Cc3ccc(Cl)c(N4CCOCC4)c3)C[C@@H]2N1C(=O)NCc1ccccc1 [Compound 139]

row,IC50 [µM],SMILES
1,1 ± 0.2,C#CCN1CC(=O)N2[C@@H](Cc3ccc(O)cc3)C(=O)N(Cc3ccc(Cl)c4cccnc34)C[C@@H]2N1C(=O)NCc1ccccc1 [Compound 138]
2,3.8 ± 1.2,CN1CC(=O)N2[C@@H](Cc3ccc(O)cc3)C(=O)N(Cc3cccc4cnn(Cc5cccc(N)c5)c34)C[C@@H]2N1C(=O)NCc1ccccc1 [Compound 92]
3,5,CN1CC(=O)N2[C@@H](Cc3ccc(O)cc3)C(=O)N(Cc3ccc4ccccc4c3)C[C@@H]2N1C(=O)NCc1ccccc1 [Compound 24]
4,0.8 ± 0.1,C#CCN1CC(=O)N2[C@@H](Cc3ccc(O)cc3)C(=O)N(Cc3cccc(N4CCOCC4)c3)C[C@@H]2N1C(=O)NCc1ccccc1 [Compound 118]
5,3.8 ± 0.6,C#CCN1CC(=O)N2[C@@H](Cc3ccc(O)cc3)C(=O)N(Cc3ccc(Cl)c(N(C)C)c3)C[C@@H]2N1C(=O)NCc1ccccc1 [Compound 110]
6,2.9 ± 0.4,[2H]c1cc(O)cc([2H])c1C[C@H]1C(=O)N(Cc2cccc3ccccc23)C[C@H]2N1C(=O)CN(C)N2C(=O)NCc1ccccc1 [Compound 172]
7,3.8 ± 2.7,C=CCN1CC(=O)N2[C@@H](Cc3ccc(O)cc3)C(=O)N(Cc3ccc(Cl)c4scnc34)C[C@@H]2N1C(=O)NCc1ccccc1 [Compound 222]
8,5.8 ± 0.3,C[C@H](c1ccc(Cl)c2cccnc12)N1CC2N(C(=O)CN(C)N2C(=O)NCc2ccccc2)[C@@H](Cc2ccc(O)cc2)C1=O (stereo partly drawn) [Compound 198]
9,62 ± 17,C#CCNC(=O)N1[C@H]2CN(Cc3cccc4ccccc34)C(=O)[C@H](Cc3ccc(O)cc3)N2C(=O)CN1C [Compound 102]
10,7.2 ± 1.4,CCCN(C)c1cccc(CN2C[C@H]3N(C(=O)CN(C)N3C(=O)NCc3ccccc3)[C@@H](Cc3ccc(O)cc3)C2=O)c1 [Compound 55]
11,3.5,CCN(CC)c1cccc(CN2C[C@H]3N(C(=O)CN(C)N3C(=O)NCc3ccccc3)[C@@H](Cc3ccc(O)cc3)C2=O)c1 [Compound 47]
12,1.6 ± 0.4,C=CCN1CC(=O)N2[C@@H](Cc3ccc(O)cc3)C(=O)N(Cc3ccc4ncsc4c3)C[C@@H]2N1C(=O)NCc1ccccc1 [Compound 142]
13,9 ± 1.5,CN(C1CC1)C1CC=CC=C1CN1C[C@H]2N(C(=O)CN(C)N2C(=O)NCc2ccccc2)[C@@H](Cc2ccc(O)cc2)C1=O (stereo partly drawn) [Compound 53]
14,0.1 ± 0.1,C=CCN1CC(=O)N2[C@@H](Cc3ccc(O)cc3)C(=O)N(Cc3cccc4sc(N)nc34)C[C@@H]2N1C(=O)NCc1ccccc1 [Compound 225]
15,0.3 ± 0.04,C=CCN1CC(=O)N2[C@@H](Cc3ccc(O)cc3)C(=O)N(Cc3cccc4c3N(C)CCO4)C[C@@H]2N1C(=O)NCc1ccccc1 [Compound 145]
16,13.9 ± 0.9,CN1CC(=O)N2[C@@H](Cc3ccc(O)cc3)C(=O)N(Cc3ccc4cn[nH]c4c3)C[C@@H]2N1C(=O)NCc1ccccc1 [Compound 89]
17,1.1 ± 0.2,C=CCN1CC(=O)N2[C@@H](Cc3ccc(O)cc3)C(=O)N(Cc3ccc4c(c3)OCCO4)C[C@@H]2N1C(=O)NCc1ccccc1 [Compound 187]
18,9.3 ± 1.6,CN1CC(=O)N2[C@@H](Cc3ccc(O)cc3)C(=O)N(Cc3cccc4c3cnn4C)C[C@@H]2N1C(=O)NCc1ccccc1 [Compound 56]
19,0.4 ± 0.04,C#CCN1CC(=O)N2[C@@H](Cc3ccc(O)cc3)C(=O)N(Cc3cccc4cccnc34)C[C@@H]2N1C(=O)NCc1ccccc1 [Compound 114]
20,2.5 ± 0.5,C=CCN1CC(=O)N2[C@@H](Cc3ccc(O)cc3)C(=O)N(Cc3cccc(NC)c3)C[C@@H]2N1C(=O)NCc1ccccc1 [Compound 193]
21,2.2 ± 0.3,C#CCN1CC(=O)N2[C@@H](Cc3ccc(O)cc3)C(=O)N(Cc3cccc(OCCN4CCOCC4)c3)C[C@@H]2N1C(=O)NCc1ccccc1 [Compound 131]
22,9.8 ± 0.7,CCN1CC(=O)N2[C@@H](Cc3ccc(O)cc3)C(=O)N(Cc3ccc(Cl)c(N(C)C)c3)C[C@@H]2N1C(=O)NCc1ccccc1 [Compound 125]
23,0.6 ± 0.2,C=CCN1CC(=O)N2[C@@H](Cc3ccc(O)cc3)C(=O)N(Cc3cccc(OC)c3OC)C[C@@H]2N1C(=O)NCc1ccccc1 [Compound 214]

row,SMILES,IC50 [µM]
1,C#CCN1CC(=O)N2[C@@H](Cc3ccc(O)cc3)C(=O)N(Cc3ccc(F)cc3F)[C@@H](C)[C@@H]2N1C(=O)NCc1ccccc1 [Compound 111],7.2 ± 0.8
2,C=CCN1CC(=O)N2[C@@H](Cc3ccc(O)cc3)C(=O)N(Cc3cccc4c3OCCO4)C[C@@H]2N1C(=O)NCc1ccccc1 [Compound 203],0.7 ± 0.1
3,C=CCN1CC(=O)N2[C@@H](Cc3ccc(OP(=O)(O)O)cc3)C(=O)N(Cc3ccccc3)C[C@@H]2N1C(=O)NCc1ccccc1 [Compound 174],1 ± 0.1
4,CN1CC(=O)N2[C@@H](Cc3ccc(O)cc3)C(=O)N(Cc3ccccc3C(F)(F)F)C[C@@H]2N1C(=O)NCc1ccccc1 [Compound 32],4.1
